# According to ChEMBL document CHEMBL4308841, “Synthesis, in vitro antiproliferative activity, and kinase inhibitory effects of pyrazole-containing diarylureas and diarylamides” (Eur J Med Chem, 2018):
# Columns and labels:
# [1] = test system: NCI-H23; test: Growth inhibition of human NCI-H23 cells incubated for 48 hrs by sulforhodamine B assay; assay type: functional, cell-based; conditions: NCI-H23, 48 h
# [2] = test system: HL-60(TB); test: Growth inhibition of human HL-60(TB) cells assessed as cell growth at 1 uM incubated for 48 hrs by sulforhodamine B assay relative to control; assay type: functional; conditions: HL-60, 48 h, read-out: Activity
# [3] = test system: SK-MEL-2; test: Growth inhibition of human SK-MEL-2 cells assessed as cell growth at 0.01 uM incubated for 48 hrs by sulforhodamine B assay relative to control; assay type: functional; conditions: SK-MEL-2, 48 h, read-out: Activity
# [4] = test system: SF-295; test: Growth inhibition of human SF295 cells assessed as cell growth at 1 uM incubated for 48 hrs by sulforhodamine B assay relative to control; assay type: functional; conditions: SF-295, 48 h, read-out: Activity
# [5] = test system: Hs-578T; test: Growth inhibition of human Hs578T cells incubated for 48 hrs by sulforhodamine B assay; assay type: functional, cell-based
# [6] = test system: Hs-578T; test: Growth inhibition of human Hs578T cells assessed as cell growth at 1 uM incubated for 48 hrs by sulforhodamine B assay relative to control; assay type: functional; conditions: read-out: Activity
# [7] = test system: HT-29; test: Growth inhibition of human HT-29 cells assessed as cell growth at 0.01 uM incubated for 48 hrs by sulforhodamine B assay relative to control; assay type: functional; conditions: HT-29, 48 h, read-out: Activity
# [8] = test system: RXF 393; test: Growth inhibition of human RXF393 cells assessed as cell growth at 0.01 uM incubated for 48 hrs by sulforhodamine B assay relative to control; assay type: functional; conditions: RXF 393, 48 h, read-out: Activity
# [9] = test system: UACC-257; test: Growth inhibition of human UACC257 cells assessed as cell growth at 0.01 uM incubated for 48 hrs by sulforhodamine B assay relative to control; assay type: functional; conditions: UACC-257, 48 h, read-out: Activity
# [10] = test system: MCF7; test: Growth inhibition of human MCF7 cells incubated for 48 hrs by sulforhodamine B assay; assay type: functional, cell-based; conditions: MCF7, 48 h
# [11] = test system: OVCAR-3; test: Growth inhibition of human OVCAR3 cells assessed as cell growth at 0.1 uM incubated for 48 hrs by sulforhodamine B assay relative to control; assay type: functional; conditions: OVCAR-3, 48 h, read-out: Activity
# [12] = test system: NCI-H322M; test: Growth inhibition of human NCI-H322M cells assessed as cell growth at 1 uM incubated for 48 hrs by sulforhodamine B assay relative to control; assay type: functional; conditions: read-out: Activity
# [13] = test system: SN12C; test: Growth inhibition of human SN12C cells assessed as cell growth at 1 uM incubated for 48 hrs by sulforhodamine B assay relative to control; assay type: functional; conditions: read-out: Activity
# [14] = test system: MCF7; test: Growth inhibition of human MCF7 cells assessed as cell growth at 0.01 uM incubated for 48 hrs by sulforhodamine B assay relative to control; assay type: functional; conditions: MCF7, 48 h, read-out: Activity
# [15] = test system: NCI-H226; test: Growth inhibition of human NCI-H226 cells assessed as cell growth at 100 uM incubated for 48 hrs by sulforhodamine B assay relative to control; assay type: functional; conditions: NCI-H226, 48 h, read-out: Activity
# [16] = test system: HL-60(TB); test: Growth inhibition of human HL-60(TB) cells incubated for 48 hrs by sulforhodamine B assay; assay type: functional, cell-based; conditions: HL-60, 48 h
# [17] = test system: SN12C; test: Growth inhibition of human SN12C cells assessed as cell growth at 0.1 uM incubated for 48 hrs by sulforhodamine B assay relative to control; assay type: functional; conditions: read-out: Activity
# [18] = test system: SNB-75; test: Growth inhibition of human SNB75 cells assessed as cell growth at 100 uM incubated for 48 hrs by sulforhodamine B assay relative to control; assay type: functional; conditions: SNB-75, 48 h, read-out: Activity
# [19] = test system: SK-OV-3; test: Growth inhibition of human SKOV3 cells assessed as cell growth at 0.01 uM incubated for 48 hrs by sulforhodamine B assay relative to control; assay type: functional; conditions: SK-OV-3, 48 h, read-out: Activity
# [20] = test system: SF-539; test: Growth inhibition of human SF539 cells assessed as cell growth at 100 uM incubated for 48 hrs by sulforhodamine B assay relative to control; assay type: functional; conditions: SF-539, 48 h, read-out: Activity
# [21] = test system: HCT-116; test: Growth inhibition of human HCT116 cells assessed as cell growth at 1 uM incubated for 48 hrs by sulforhodamine B assay relative to control; assay type: functional; conditions: HCT-116, 48 h, read-out: Activity
# [22] = test system: HCT-15; test: Growth inhibition of human HCT15 cells assessed as cell growth at 100 uM incubated for 48 hrs by sulforhodamine B assay relative to control; assay type: functional; conditions: HCT-15, 48 h, read-out: Activity
# [23] = test system: SR; test: Growth inhibition of human SR cells assessed as cell growth at 0.1 uM incubated for 48 hrs by sulforhodamine B assay relative to control; assay type: functional; conditions: read-out: Activity
# [24] = test system: CAKI-1; test: Growth inhibition of human Caki1 cells assessed as cell growth at 1 uM incubated for 48 hrs by sulforhodamine B assay relative to control; assay type: functional; conditions: CAKI-1, 48 h, read-out: Activity
# [25] = test system: SNB-75; test: Growth inhibition of human SNB75 cells incubated for 48 hrs by sulforhodamine B assay; assay type: functional, cell-based; conditions: SNB-75, 48 h
# [26] = test system: SF-539; test: Growth inhibition of human SF539 cells incubated for 48 hrs by sulforhodamine B assay; assay type: functional, cell-based; conditions: SF-539, 48 h
# [27] = test system: IGROV-1; test: Growth inhibition of human IGROV1 cells assessed as cell growth at 0.01 uM incubated for 48 hrs by sulforhodamine B assay relative to control; assay type: functional; conditions: IGROV-1, 48 h, read-out: Activity
# [28] = test system: SNB-19; test: Growth inhibition of human SNB19 cells assessed as cell growth at 0.01 uM incubated for 48 hrs by sulforhodamine B assay relative to control; assay type: functional; conditions: SNB-19, 48 h, read-out: Activity
# [29] = test system: NCI-H322M; test: Growth inhibition of human NCI-H322M cells assessed as cell growth at 0.1 uM incubated for 48 hrs by sulforhodamine B assay relative to control; assay type: functional; conditions: read-out: Activity
# [30] = test system: OVCAR-4; test: Growth inhibition of human OVCAR4 cells assessed as cell growth at 100 uM incubated for 48 hrs by sulforhodamine B assay relative to control; assay type: functional; conditions: OVCAR-4, 48 h, read-out: Activity
# [31] = read-out: LC50 (the source's name)
# [32] = read-out: pLC50 (the source's name) (converted)
compound,measurement,setting,value
COc1cc(Cl)cc(-c2nn(-c3cccc(NC(=O)c4ccc(N5CCOCC5)c(C(F)(F)F)c4)c3)cc2-c2ccncc2)c1,GI50,[1]; read-out: GI50,3.07 µM
same,LC50,[1]; read-out: LC50,> 100 µM
same,TGI,[1]; read-out: TGI,> 100 µM
same,GI50,[1]; read-out: pGI50 (converted),30.9 µM
same,LC50,[1]; read-out: pLC50 (converted),> 100 µM
same,TGI,[1]; read-out: pTGI (converted),> 100 µM
same,growth at 1 µM,[2],105%
same,growth at 0.01 µM,[3],96%
same,growth at 1 µM,[4],73%
same,GI50,[5]; read-out: GI50,5.48 µM
same,CC50,[5]; [31],> 100 µM
same,TGI,[5]; read-out: TGI,> 100 µM
same,GI50,[5]; read-out: pGI50 (converted),6.46 µM
same,CC50,[5]; [32],> 100 µM
same,TGI,[5]; read-out: pTGI (converted),> 100 µM
same,growth at 1 µM,[6],81%
same,growth at 0.01 µM,[7],100%
same,growth at 0.01 µM,[8],97%
same,growth at 0.01 µM,[9],91%
same,GI50,[10]; read-out: GI50,5.71 µM
same,LC50,[10]; read-out: LC50,> 100 µM
same,TGI,[10]; read-out: TGI,> 100 µM
same,GI50,[10]; read-out: pGI50 (converted),8.71 µM
same,LC50,[10]; read-out: pLC50 (converted),> 100 µM
same,TGI,[10]; read-out: pTGI (converted),> 100 µM
same,growth at 0.1 µM,[11],107%
same,growth at 1 µM,[12],55%
same,growth at 1 µM,[13],89%
same,growth at 0.01 µM,[14],91%
same,growth at 100 µM,[15],50%
same,GI50,[16]; read-out: GI50,4.19 µM
same,LC50,[16]; read-out: LC50,> 100 µM
same,TGI,[16]; read-out: TGI,33.2 µM
same,GI50,[16]; read-out: pGI50 (converted),4.17 µM
same,LC50,[16]; read-out: pLC50 (converted),> 100 µM
same,TGI,[16]; read-out: pTGI (converted),33.1 µM
same,growth at 0.1 µM,[17],95%
same,growth at 100 µM,[18],18%
same,growth at 0.01 µM,[19],102%
same,growth at 100 µM,[20],2%
same,growth at 1 µM,[21],90%
same,growth at 100 µM,[22],5%
same,growth at 0.1 µM,[23],91%
same,growth at 1 µM,[24],94%
same,GI50,[25]; read-out: GI50,2 µM
same,CC50,[25]; [31],> 100 µM
same,TGI,[25]; read-out: TGI,> 100 µM
same,GI50,[25]; read-out: pGI50 (converted),2.63 µM
same,CC50,[25]; [32],> 100 µM
same,TGI,[25]; read-out: pTGI (converted),> 100 µM
same,GI50,[26]; read-out: GI50,3.74 µM
same,CC50,[26]; [31],> 100 µM
same,TGI,[26]; read-out: TGI,> 100 µM
same,GI50,[26]; read-out: pGI50 (converted),3.72 µM
same,CC50,[26]; [32],> 100 µM
same,TGI,[26]; read-out: pTGI (converted),> 100 µM
same,growth at 0.01 µM,[27],103%
same,growth at 0.01 µM,[28],96%
same,growth at 0.1 µM,[29],94%
same,growth at 100 µM,[30],38%
